Target: T1, FtsZ (Bacillus subtilis, UniProt P17865)
T1 sequence (P17865 1-382): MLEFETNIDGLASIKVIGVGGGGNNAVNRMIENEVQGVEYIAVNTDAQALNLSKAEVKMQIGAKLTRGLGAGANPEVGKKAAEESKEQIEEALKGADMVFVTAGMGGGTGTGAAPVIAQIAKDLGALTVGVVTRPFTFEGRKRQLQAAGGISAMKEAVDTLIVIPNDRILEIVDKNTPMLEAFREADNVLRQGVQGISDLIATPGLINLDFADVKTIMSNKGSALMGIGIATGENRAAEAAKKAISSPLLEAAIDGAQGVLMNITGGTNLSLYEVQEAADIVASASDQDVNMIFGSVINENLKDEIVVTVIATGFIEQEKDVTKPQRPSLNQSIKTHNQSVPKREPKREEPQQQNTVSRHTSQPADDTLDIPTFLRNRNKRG
Test: malachite green/ammonium molybdate GTPase assay
Format: biochemical

Question: Which “malachite green/ammonium molybdate GTPase assay (1 mM GTP)” value does the source give for `Nc1nc2c(ncn2[C@@H]2O[C@H](COP(=O)(O)OP(=O)(O)OP(=O)(O)O)[C@@H](O)[C@H]2O)c(=O)[nH]1` [GTP] here?
Answer: 1.5 ± 0.6 min^–1

Source: paper PMC4020581 (Biochemistry, 2014)
